Counter-ions that a name gives are not always drawn.
Tests used:
[1] = target: T1, human vasopressin V1a receptor (Homo sapiens, UniProt P37288); assay: Human vasopressin V1a receptor binding assay; conditions: 1321N1 cell membranes, [3H]vasopressin; read-out: Ki (nM) on hV1a cell line
Procedure: Human Vasopressin V1a Receptor Binding Assay
Cells were suspended in preparative buffer (50 mM Tris, 1 mM EDTA, 0.1 mM PMSF) and homogenized with glass homogenizing potter. To separate the raw membrane fraction two consecutive centrifugation procedures (40,000 g for 20 minutes at 4° C.) were executed, then the membrane was taken into the preparatory buffer during a final washing step, it was divided into aliquots which were stored at −80° C. until the time of measurement.
To determine the final affinity value, the results of at least two independent experiments were taken into account.
Non-specific binding values were determined in the presence of unlabeled 1.2×10^−6 M (Arg^8)-vasopressin. Samples were incubated in a total volume of 0.33 ml for 60 minutes at 27° C. Membrane-bound and free ligands were separated by filtration through a 0.5% polyethyleneimine-impregnated UniFilter® GF/B™. After drying the filter plates, 40 μl Microscint-20 (Packard) scintillation cocktail was added to the samples. Finally, radioactivity was measured using MicroBeta^2 Microplate Counter (Perkin Elmer).
During fitting, the asymptotes are not fixed. The K values (inhibition constant) are given with Cheng-Prusoff equation Ki=IC50/[1+(L/KD)] wherein [L] is the radioligand concentration used in the experiment and [KD] is the affinity of the radioactively labelled ligand for the given receptor. The KD is determined beforehand using the Scatchard curve.

[2] = target: T1, human vasopressin V1a receptor; assay: Functional assay on human vasopressin V1a receptor expressing cell line (intracellular Ca2+ fluorescence); assay type: cell-based; conditions: for IC50: 1321N1 cells, (Arg8)-vasopressin at EC80, read-out: IC50 (nM) on hV1a cell line; for inhibition at 1 µM: read-out: % at 1 μM, printed in the column IC50 (nM) on hV1a cell line
Procedure: Functional Assay to Test Compounds on Human Vasopressin V1a Receptor Expressing Cell Line
The ordinary secondary messenger pathway of the measured GPCR receptor was used, the endogenous Gq-associated system.
Using 30,000 cells/plate, compounds were measured on 96-well plates. The buffer composition of the measurements was the following (expressed in mM): 140 NaCl, 5 KCl, 2 CaCl2), 2 MgCl2, 10 glucose, 10 HEPES (4-(2-hydroxyethyl)-1-piperazine-ethanesulfonic acid), 2 probenecid, pH=7.4. FLIPR Calcium 5 kit (Molecular Devices) was used as fluorescent dye, the medium was not removed prior to filling with the dye and the cells were not washed out either before or after. The incubation was performed at room temperature, the final concentration of DMSO was 1%. The materials to be measured were administered in 15 to 20 minutes pretreatment, at least two parallels of each compound in each concentration was measured.
Fluorescence signal was used to determine the intracellular Ca^2+ level, the reader was FlexStation II96. […] The fluorescence signal was logged in every 1.4 seconds for 1 minute. The reference compounds used were the following: (Arg^8)-vasopressin as agonist at concentration of EC80, determined for each plate, and relcovaptan as antagonist at 1 μM. The % of inhibition at each concentration and the IC50 value of the compounds were determined where a concentration line was also measured.
The total AVP concentration-response curve was recorded on each plate. The effect of compounds measured was expressed by percentage of relative inhibition compared to control response. […] The average IC50 values were calculated from at least three independent measurements in all cases.

T1 sequence (P37288 whole entry): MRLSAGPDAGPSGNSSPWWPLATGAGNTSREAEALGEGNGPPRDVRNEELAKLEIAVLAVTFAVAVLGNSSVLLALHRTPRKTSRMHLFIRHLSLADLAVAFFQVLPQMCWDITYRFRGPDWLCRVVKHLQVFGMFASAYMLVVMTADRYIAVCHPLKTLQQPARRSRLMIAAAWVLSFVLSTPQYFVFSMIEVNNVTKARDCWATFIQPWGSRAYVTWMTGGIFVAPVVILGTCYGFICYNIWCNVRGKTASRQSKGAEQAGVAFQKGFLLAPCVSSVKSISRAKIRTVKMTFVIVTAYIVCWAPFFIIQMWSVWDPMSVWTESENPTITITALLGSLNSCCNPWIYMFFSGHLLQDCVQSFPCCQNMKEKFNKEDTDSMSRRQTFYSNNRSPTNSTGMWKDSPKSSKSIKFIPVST

SMILES	Ki [1]	IC50 [2]	inhibition at 1 µM [2]
OC1Cc2cc(Cl)ccc2-n2c(nnc2[C@H]2CC[C@H](C(F)(F)F)CC2)C1 (stereo partly drawn) [Example 72, 8-chloro-1-[trans-4-(trifluoromethyl)cyclohexyl]-5,6-dihydro-4H-[1,2,4]triazolo[4,3-a][1]benzazepine-5-ol]	7.5 nM	21 nM	
CN1C[C@]2(CC[C@@H](c3nnc4n3-c3ccc(Cl)cc3CC3(C4)OCCO3)CC2)OC1=O [Example 75, (trans)-8-(8′-chloro-4′H, 6′H-spiro[1,3-dioxolane-2,5′-[1,2,4]triazolo[4,3-a][1]benzazepin]-1′-yl)-3-methyl-1-oxa-3-azaspiro[4.5]decan-2-one]	3.7 nM	10.4 nM	
Clc1ccc2c(c1)CC1(Cc3nnc(C4CN(c5ncccn5)C4)n3-2)OCCO1 [Example 79]	71 nM	1860 nM	
O=C(N[C@H]1Cc2cc(Cl)ccc2-n2c(nnc2[C@H]2CC[C@H](Oc3ccccn3)CC2)C1)c1ccc(F)cc1 [Example 80]	58 nM	520 nM	
CC(C)NC1Cc2cc(C#N)ccc2-n2c(nnc2[C@H]2CC[C@H](Oc3ccccn3)CC2)C1 (stereo partly drawn) [Example 82, 5-(propan-2-ylamino)-1-[trans-4-(pyridin-2-yloxy)cyclohexyl]-5,6-dihydro-4H-[1,2,4]triazolo[4,3-a][1]benzazepin-8-carbonitrile trifluoroacetate]	29 nM	445 nM	
Fc1ccc(CN[C@H]2Cc3cc(Cl)ccc3-n3c(nnc3[C@H]3CC[C@H](Oc4ccccn4)CC3)C2)cc1 [Example 83, (S-8-chloro-N-4-fluorobenzyl)-1-[trans-4-pyridin-2-loxcyclohexyl]-5,6-dihydro-4H-[1,2,4]triazolo[4,3-a][1]benzazepine-5-amine]	4.4 nM	44 nM	
N#Cc1ccc2c(c1)CC1(Cc3nnc([C@H]4CC[C@H](C(F)(F)F)CC4)n3-2)OCCO1 [Example 84, 1′-[trans-4-(trifluoromethyl)cyclohexyl]-4′H,6′H-spiro[1,3-dioxolane-2,5′-[1,2,4]triazolo[4,3-a][1]benzazepine]-8′-carbonitrile]	11.4 nM	72 nM	
O=C1Cc2cc(Br)ccc2-n2c(nnc2[C@H]2CC[C@H](C(=O)N3CCCCC3)CC2)C1 [Example 87, 8-bromo-1-[trans-4-(piperidin-1-ylcarbonyl)cyclohexyl]-4H-[1,2,4]triazolo[4,3-a][1]benzazepin-5(6H)-one]	2.5 nM	57 nM	
N#Cc1ccc2c(c1)CC1(Cc3nnc([C@H]4CC[C@H](C(=O)N5CCCCC5)CC4)n3-2)OCCO1 [Example 90, 1′-[trans-4-(piperidin-1-ylcarbonyl)cyclohexyl]-4′H,6′H-spiro[1,3-dioxolane-2,5′-[1,2,4]triazolo[4,3-a][1]benzazepin]-8′-carbonitrile]	10.2 nM	152 nM	
O=C1Cc2cc(Br)ccc2-n2c(nnc2[C@H]2CC[C@H](C(F)(F)F)CC2)C1 [Example 91, 8-bromo-1-[trans-4-(trifluoromethyl)cyclohexyl]-4H-[1,2,4]triazolo[4,3-a][1]benzazepin-5(6H)-one]	9.1 nM	45 nM	
OC1Cc2cc(Br)ccc2-n2c(nnc2[C@H]2CC[C@H](C(F)(F)F)CC2)C1 (some centres unmarked) [Example 93]	3.2 nM	16 nM	
CC(C)(C)OC(=O)NC1Cc2cc(Cl)ccc2-n2c(nnc2N2CCC(N3CCCCC3)CC2)C1 (centres unmarked) [Example 95, Tert-butyl [1-(1,4′-bipiperidin-1′-yl)-8-chloro-5,6-dihydro-4H-[1,2,4]triazolo[4,3-a][1]benzazepin-5-yl]carbaminate]	547 nM		22%
CN(Cc1ccc(F)cc1)[C@H]1Cc2cc(Cl)ccc2-n2c(nnc2[C@H]2CC[C@H](Oc3ccccn3)CC2)C1 [Example 97, (5S)-8-chloro-N-(4-fluorobenzyl)-N-methyl-1-[trans-4-(pyridin-2-yloxy)cyclohexyl]-5,6-dihydro-4H-[1,2,4]triazolo[4,3-a][1]benzazepin-5-amine]	122 nM		34%

Stronger by Ki [1], values ahead:

Ki [1]	IC50 [2]	inhibition at 1 µM [2]	SMILES
2.2 nM	12 nM		COC(=O)[C@H]1CC[C@H](c2nnc3n2-c2ccc(Br)cc2CC(=O)C3)CC1 [Example 86, methyl trans-4-(8-bromo-5-oxo-5,6-dihydro-4H-[1,2,4]triazolo[4,3-a][1]benzazepin-1-yl)cyclohexane carboxylate]
2 nM	23 nM		Clc1ccc2c(c1)CC1(Cc3nnc(N4CCC(N5CCCCC5)CC4)n3-2)OCCO1 [Example 94, 1′-(1,4′-bipiperidin-1′-yl)-8′-chloro-4′H,6′H-spiro[1,3-dioxolane-2,5′-[1,2,4]triazolo[4,3-a][1]benzazepine]]
1.9 nM	18 nM		CCN[C@H]1Cc2cc(Cl)ccc2-n2c(nnc2[C@H]2CC[C@H](Oc3ccccn3)CC2)C1 [Example 77, (5S)-8-chloro-N-ethyl-1-[trans-4-(pyridin-2-yloxy)cyclohexyl]-5,6-dihydro-4H-[1,2,4]triazolo[4,3-a][1]benzazepine-5-amine]
1.9 nM	16 nM		O=C([C@H]1CC[C@H](c2nnc3n2-c2ccc(Br)cc2CC(O)C3)CC1)N1CCCCC1 (stereo partly drawn) [Example 92, [Trans-4-(8-bromo-5-hydroxy-5,6-dihydro-4H-[1,2,4]triazolo[4,3-a][1]benzazepin-1-yl)cyclohexyl](piperidin-1-yl)methanone]
1.7 nM	12 nM		CN[C@H]1Cc2cc(Cl)ccc2-n2c(nnc2[C@H]2CC[C@H](Oc3ccccn3)CC2)C1 [Example 78, (5S)-8-chloro-N-methyl-1-[trans-4-(pyridin-2-yloxy)cyclohexyl]-5,6-dihydro-4H-[1,2,4]triazolo[4,3-a][1]benzazepine-5-amine]
1.6 nM	3.3 nM		CN1C[C@]2(CC[C@H](c3nnc4n3-c3ccc(Cl)cc3CC3(C4)OCCO3)CC2)OC1=O [Example 73, (cis)-8-(8′-chloro-4′H,6′H-spiro[1,3-dioxolane-2,5′-[1,2,4]triazolo[4,3-a][1]benzazepine]-1′-il)-3-methyl-1-oxa-3-azaspiro[4.5]decan-2-one]
1.1 nM	2.2 nM		CN([C@H]1Cc2cc(Cl)ccc2-n2c(nnc2[C@H]2CC[C@H](Oc3ccccn3)CC2)C1)S(C)(=O)=O [Example 76, N-{(5S)-8-chloro-1-[trans-4-(pyridin-2-yloxy)cyclohexyl]-5,6-dihydro-4H-[1,2,4]triazolo[4,3-a][1]benzazepin-5-yl}-N-methylmethanesulfonamide]
0.4 nM	1.8 nM		O=C([C@H]1CC[C@H](c2nnc3n2-c2ccc(Br)cc2CC2(C3)OCCO2)CC1)N1CCCCC1 [Example 85, [Trans-4-(8′-bromo-4′H,6′H-spiro[1,3-dioxolane-2,5′-[1,2,4]triazolo[4,3-a][1]benzazepin]-1′-yl)cyclohexyl](piperidin-1-yl)methanone]
0.2 nM	1.4 nM		FC(F)(F)[C@H]1CC[C@H](c2nnc3n2-c2ccc(Br)cc2CC2(C3)OCCO2)CC1 [Example 81, 8′-bromo-1′-[trans-4-(trifluoromethyl)cyclohexyl]-4′H,6′H-spiro[1,3-dioxolane-2,5′-[1,2,4]triazolo[4,3-a][1]benzazepine]]

Source: patent publication US11298363B2, “Triazolobenzazepines as vasopressin V1a receptor antagonists” (RICHTER GEDEON NYRT., priority 2017, dated 2022)
